Reference: ChEMBL document CHEMBL5331077, “Combining pharmacophore models derived from DNA-encoded chemical libraries with structure-based exploration to predict Tankyrase 1 inhibitors” (Eur J Med Chem, 2023)
Calls of active or inactive are those of the source. No cut-off for these calls is given here.

Columns and labels:
[1] = target: Protein mono-ADP-ribosyltransferase PARP14 (Homo sapiens) (UniProt Q460N5); test: Inhibition of PARP14 (unknown origin)
[2] = target: T1, Protein mono-ADP-ribosyltransferase TIPARP (Homo sapiens) (UniProt Q7Z3E1); test: Inhibition of PARP7 (unknown origin)
T1 sequence (whole entry): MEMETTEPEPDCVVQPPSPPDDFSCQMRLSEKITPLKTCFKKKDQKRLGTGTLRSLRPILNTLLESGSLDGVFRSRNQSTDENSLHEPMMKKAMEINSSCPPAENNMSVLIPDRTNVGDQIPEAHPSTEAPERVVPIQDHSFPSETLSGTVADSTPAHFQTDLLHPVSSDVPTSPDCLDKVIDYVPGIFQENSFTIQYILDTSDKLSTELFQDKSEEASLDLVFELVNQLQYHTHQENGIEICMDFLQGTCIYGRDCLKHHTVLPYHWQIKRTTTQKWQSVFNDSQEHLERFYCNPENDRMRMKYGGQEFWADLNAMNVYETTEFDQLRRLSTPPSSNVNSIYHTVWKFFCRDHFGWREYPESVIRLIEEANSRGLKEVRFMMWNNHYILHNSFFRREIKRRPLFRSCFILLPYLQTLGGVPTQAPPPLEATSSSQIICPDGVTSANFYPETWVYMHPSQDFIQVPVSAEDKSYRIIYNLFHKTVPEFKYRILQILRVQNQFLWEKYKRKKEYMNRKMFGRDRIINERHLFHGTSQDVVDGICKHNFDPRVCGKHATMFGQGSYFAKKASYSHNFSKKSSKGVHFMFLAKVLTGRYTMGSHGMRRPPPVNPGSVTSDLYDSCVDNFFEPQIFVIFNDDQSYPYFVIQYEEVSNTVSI

[3] = target: Protein mono-ADP-ribosyltransferase PARP6 (Homo sapiens) (UniProt Q2NL67); test: Inhibition of PARP6 (unknown origin)
Protein mono-ADP-ribosyltransferase PARP6 (Homo sapiens), sequence (Q2NL67 whole entry): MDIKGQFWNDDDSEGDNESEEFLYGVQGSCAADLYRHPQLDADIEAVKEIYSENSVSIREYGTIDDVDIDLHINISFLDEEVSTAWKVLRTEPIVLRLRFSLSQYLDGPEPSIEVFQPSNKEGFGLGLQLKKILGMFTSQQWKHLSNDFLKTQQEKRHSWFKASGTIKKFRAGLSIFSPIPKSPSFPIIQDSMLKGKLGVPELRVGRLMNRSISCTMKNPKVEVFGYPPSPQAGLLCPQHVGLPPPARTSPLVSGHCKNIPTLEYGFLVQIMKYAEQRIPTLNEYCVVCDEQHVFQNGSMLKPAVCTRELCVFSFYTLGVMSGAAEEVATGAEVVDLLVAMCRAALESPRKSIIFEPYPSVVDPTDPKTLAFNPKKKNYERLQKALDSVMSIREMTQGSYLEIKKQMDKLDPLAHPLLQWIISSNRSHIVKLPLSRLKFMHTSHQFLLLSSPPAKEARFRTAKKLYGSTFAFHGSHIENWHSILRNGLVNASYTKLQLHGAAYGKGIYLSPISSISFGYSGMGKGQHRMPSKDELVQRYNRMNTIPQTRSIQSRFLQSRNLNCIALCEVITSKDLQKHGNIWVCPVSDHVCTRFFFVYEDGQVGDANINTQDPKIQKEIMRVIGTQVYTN

[4] = target: T2, Protein mono-ADP-ribosyltransferase PARP8 (Homo sapiens) (UniProt Q8N3A8); test: Inhibition of PARP8 (unknown origin)
T2 sequence (whole entry): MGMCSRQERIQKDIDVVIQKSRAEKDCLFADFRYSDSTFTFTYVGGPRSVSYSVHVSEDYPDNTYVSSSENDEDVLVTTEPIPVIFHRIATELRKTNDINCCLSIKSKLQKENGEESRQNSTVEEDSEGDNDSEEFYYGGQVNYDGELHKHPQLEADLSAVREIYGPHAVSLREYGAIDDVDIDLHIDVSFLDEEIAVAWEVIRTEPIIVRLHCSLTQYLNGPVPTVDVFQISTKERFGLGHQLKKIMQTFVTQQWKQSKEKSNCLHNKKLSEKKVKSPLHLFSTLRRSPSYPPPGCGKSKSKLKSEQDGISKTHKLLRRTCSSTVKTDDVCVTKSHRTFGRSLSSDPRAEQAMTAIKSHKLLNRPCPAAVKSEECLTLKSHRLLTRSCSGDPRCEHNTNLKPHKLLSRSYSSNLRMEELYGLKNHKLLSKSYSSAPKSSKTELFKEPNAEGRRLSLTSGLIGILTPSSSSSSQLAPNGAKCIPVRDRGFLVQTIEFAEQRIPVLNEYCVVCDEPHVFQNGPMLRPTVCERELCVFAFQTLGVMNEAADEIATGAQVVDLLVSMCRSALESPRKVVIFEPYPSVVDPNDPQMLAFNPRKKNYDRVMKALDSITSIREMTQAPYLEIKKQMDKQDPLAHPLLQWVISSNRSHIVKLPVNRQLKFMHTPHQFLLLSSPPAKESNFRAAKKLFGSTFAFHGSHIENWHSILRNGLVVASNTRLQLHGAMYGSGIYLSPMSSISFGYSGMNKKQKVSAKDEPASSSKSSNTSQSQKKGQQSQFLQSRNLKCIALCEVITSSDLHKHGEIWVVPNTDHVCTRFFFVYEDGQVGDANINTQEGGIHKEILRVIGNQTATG

[5] = target: T3, Protein mono-ADP-ribosyltransferase PARP11 (Homo sapiens) (UniProt Q9NR21); test: Inhibition of PARP11 (unknown origin)
T3 sequence (whole entry): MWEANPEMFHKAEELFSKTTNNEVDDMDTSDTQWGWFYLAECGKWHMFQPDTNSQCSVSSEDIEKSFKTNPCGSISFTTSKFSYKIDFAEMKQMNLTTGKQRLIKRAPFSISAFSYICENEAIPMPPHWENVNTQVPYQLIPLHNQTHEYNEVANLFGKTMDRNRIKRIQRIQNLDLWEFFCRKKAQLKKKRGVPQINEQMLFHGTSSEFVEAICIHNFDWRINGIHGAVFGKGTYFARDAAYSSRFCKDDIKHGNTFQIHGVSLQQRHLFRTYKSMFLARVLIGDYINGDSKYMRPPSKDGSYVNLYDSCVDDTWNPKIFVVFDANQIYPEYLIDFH

Protein mono-ADP-ribosyltransferase PARP14 (Homo sapiens), sequence (Q460N5 whole entry): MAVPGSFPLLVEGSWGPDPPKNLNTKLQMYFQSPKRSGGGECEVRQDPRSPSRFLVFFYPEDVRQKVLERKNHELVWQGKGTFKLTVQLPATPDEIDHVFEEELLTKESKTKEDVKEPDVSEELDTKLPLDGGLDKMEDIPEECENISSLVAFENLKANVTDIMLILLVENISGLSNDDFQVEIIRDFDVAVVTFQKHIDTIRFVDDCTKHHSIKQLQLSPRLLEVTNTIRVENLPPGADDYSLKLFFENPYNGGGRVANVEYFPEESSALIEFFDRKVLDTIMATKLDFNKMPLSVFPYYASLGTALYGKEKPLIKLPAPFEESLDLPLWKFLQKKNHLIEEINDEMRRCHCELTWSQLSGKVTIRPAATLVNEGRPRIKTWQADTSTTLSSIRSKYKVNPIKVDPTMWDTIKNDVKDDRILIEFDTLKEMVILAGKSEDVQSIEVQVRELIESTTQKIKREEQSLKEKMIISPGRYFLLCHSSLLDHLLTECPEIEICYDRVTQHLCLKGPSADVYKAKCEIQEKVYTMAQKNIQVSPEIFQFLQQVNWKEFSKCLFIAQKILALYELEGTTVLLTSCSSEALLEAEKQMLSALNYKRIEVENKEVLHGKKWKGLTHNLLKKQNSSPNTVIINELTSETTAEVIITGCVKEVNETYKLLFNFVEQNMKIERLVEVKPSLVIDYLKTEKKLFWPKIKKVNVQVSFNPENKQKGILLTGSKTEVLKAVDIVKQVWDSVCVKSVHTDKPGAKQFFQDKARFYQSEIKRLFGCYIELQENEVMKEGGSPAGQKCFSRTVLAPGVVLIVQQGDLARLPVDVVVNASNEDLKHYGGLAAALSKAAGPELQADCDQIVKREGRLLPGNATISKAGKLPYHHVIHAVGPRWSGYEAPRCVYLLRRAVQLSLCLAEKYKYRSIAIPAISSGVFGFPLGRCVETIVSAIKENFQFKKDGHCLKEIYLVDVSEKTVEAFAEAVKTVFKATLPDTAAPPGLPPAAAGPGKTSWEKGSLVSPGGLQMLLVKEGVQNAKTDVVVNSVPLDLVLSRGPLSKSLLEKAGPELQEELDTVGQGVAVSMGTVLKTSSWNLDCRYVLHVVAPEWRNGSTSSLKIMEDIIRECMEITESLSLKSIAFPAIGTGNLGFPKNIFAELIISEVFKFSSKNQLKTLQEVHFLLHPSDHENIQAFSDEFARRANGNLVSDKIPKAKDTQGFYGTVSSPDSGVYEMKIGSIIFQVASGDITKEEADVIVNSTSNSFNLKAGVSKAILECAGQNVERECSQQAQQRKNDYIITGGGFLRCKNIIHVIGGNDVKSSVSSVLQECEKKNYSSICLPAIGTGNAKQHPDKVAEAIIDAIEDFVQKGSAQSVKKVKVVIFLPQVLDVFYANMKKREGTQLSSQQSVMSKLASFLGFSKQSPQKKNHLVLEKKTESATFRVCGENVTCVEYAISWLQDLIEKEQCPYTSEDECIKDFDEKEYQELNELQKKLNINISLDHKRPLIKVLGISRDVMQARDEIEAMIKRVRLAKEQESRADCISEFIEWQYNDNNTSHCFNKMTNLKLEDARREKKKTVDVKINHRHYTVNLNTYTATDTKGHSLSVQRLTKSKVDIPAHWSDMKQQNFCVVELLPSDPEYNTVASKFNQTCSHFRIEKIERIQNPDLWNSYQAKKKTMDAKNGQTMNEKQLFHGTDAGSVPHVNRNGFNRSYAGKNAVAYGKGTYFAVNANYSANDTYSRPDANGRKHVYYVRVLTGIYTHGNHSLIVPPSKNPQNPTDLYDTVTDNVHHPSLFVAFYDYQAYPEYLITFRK

SMILES | inhibition [1] | inhibition [2] | inhibition [3] | inhibition [4] | inhibition [5]
Cc1cc(OCC(=O)NCCNC(=O)c2cccc(COc3ccccc3C(N)=O)c2)c2c3c(c(=O)oc2c1)CCC3 | inactive | inactive | inactive | inactive | inactive
CNC(=O)[C@H](CNC(=O)CCn1c(=O)[nH]c(=O)c2ccccc21)NC(=O)c1cnc2ccccc2c1 | inactive | inactive | inactive | inactive | inactive
